pIC50: −log10 of the molar value. Residues, ends and D or L forms follow the SMILES beside them.
biological target: S. aureus N-Succinyl-L,L-DAP Desuccinylase (DapE), SEQ ID NO: 2 (Staphylococcus aureus, UniProt Q5HF23); test: qualitative dipeptidase activity (TLC assay); type: biochemical, Staphylococcus aureus COL; set-up: key: +: Mild hydrolytic activity; ++: Moderate hydrolytic activity; +++: High hydrolytic activity; conditions: 5.0 mg/mL dipeptide, 2 μg DapE, 50 mM Tris-HCl pH 7.5, 37° C., 30 min
Sequence (Q5HF23 whole entry): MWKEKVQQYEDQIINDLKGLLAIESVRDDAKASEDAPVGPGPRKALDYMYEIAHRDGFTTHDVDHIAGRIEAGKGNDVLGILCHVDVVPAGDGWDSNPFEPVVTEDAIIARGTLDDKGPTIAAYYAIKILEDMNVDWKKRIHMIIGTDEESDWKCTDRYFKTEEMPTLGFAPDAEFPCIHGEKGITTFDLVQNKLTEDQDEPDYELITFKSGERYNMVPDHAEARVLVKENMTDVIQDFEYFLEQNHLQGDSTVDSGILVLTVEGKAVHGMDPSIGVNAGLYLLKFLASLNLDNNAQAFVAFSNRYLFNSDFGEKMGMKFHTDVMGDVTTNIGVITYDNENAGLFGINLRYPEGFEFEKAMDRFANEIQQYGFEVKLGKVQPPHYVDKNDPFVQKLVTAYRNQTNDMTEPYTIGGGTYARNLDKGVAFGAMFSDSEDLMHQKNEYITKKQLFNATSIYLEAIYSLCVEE

| Molecule | Activity (qualitative dipeptidase / hydrolytic activity) |
| --- | --- |
| C[C@H](N)C(=O)N[C@@H](CO)C(=O)O [Ala-Ser] (H-Ala-Ser-OH) | + |
| C[C@H](NC(=O)[C@@H](N)CCCN=C(N)N)C(=O)O [Arg-Ala] (H-Arg-Ala-OH) | +++ |
| CC[C@H](C)[C@H](NC(=O)[C@@H](N)CCCN=C(N)N)C(=O)O [Arg-Ile] (H-Arg-Ile-OH) | +++ |
| CC(C)C[C@H](NC(=O)[C@@H](N)CCCN=C(N)N)C(=O)O [Arg-Leu] (H-Arg-Leu-OH) | +++ |
| CC(C)[C@H](NC(=O)[C@@H](N)CCCN=C(N)N)C(=O)O [Arg-Val] (H-Arg-Val-OH) | +++ |
| NCCCC[C@H](NC(=O)[C@@H](N)CC(=O)O)C(=O)O [Asp-Lys] (H-Asp-Lys-OH) | + |
| NCCCC[C@H](NC(=O)CN)C(=O)O [Gly-Lys] (H-Gly-Lys-OH) | + |
| NCC(=O)N[C@@H](CO)C(=O)O [Gly-Ser] (H-Gly-Ser-OH) | + |
| CC(C)C[C@H](NC(=O)[C@@H](N)Cc1cnc[nH]1)C(=O)O [His-Leu] (H-His-Leu-OH) | + |
| CC(C)C[C@H](NC(=O)[C@@H](N)CCCCN)C(=O)O [Lys-Leu] (H-Lys-Leu-OH) | ++ |
| NCCCC[C@H](N)C(=O)N[C@@H](Cc1ccccc1)C(=O)O [Lys-Phe] | ++ |
| CC(C)[C@H](NC(=O)[C@@H](N)Cc1ccccc1)C(=O)O [Phe-Val] (H-Phe-Val-OH) | +++ |
| N[C@@H](CO)C(=O)N[C@@H](Cc1cnc[nH]1)C(=O)O [Ser-His] (H-Ser-His-OH) | ++ |

system: botanical DapA (N. sylvestris); test: not given; conditions: highly sensitive, read-out: IC50 of feedback inhibition by L-lysine; cited from earlier work

| Molecule | pIC50 |
| --- | --- |
| NCCCC[C@H](N)C(=O)O [L-lysine] | 4.70 to 4.82 |

biological target: DapA from gram negative bacteria (E. coli) (Escherichia coli, UniProt P0A6L2); test: not given; conditions: less sensitive, read-out: IC50 of feedback inhibition by L-lysine; cited from earlier work
Sequence (P0A6L2 whole entry): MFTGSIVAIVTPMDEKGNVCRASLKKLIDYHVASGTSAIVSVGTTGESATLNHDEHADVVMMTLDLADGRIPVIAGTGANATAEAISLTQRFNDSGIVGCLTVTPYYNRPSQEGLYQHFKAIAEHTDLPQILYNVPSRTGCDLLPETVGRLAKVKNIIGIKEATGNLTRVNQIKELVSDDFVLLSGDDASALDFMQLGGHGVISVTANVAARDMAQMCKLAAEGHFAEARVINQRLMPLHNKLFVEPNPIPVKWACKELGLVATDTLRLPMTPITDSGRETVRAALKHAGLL

| Molecule | pIC50 |
| --- | --- |
| NCCCC[C@H](N)C(=O)O [L-lysine] | 1.00 |

system: CC(C)[C@H](NC(=O)[C@@H](N)Cc1ccccc1)C(=O)O; test: purified protein, by the assay type; conditions: other: holo-DapE + Mn^2+ + TCEP, Phe-Val, pH 7.5, 37° C.

| Molecule | Km |
| --- | --- |
| S. aureus N-Succinyl-L,L-DAP Desuccinylase (DapE), holo form, SEQ ID NO: 2 (Staphylococcus aureus subsp. aureus COL) | 1100 ± 100 µM |

same assay, conditions: other: holo-DapE + Mn^2+, Phe-Val, pH 7.5, 37° C.

| Molecule | Km |
| --- | --- |
| S. aureus N-Succinyl-L,L-DAP Desuccinylase (DapE), holo form, SEQ ID NO: 2 (Staphylococcus aureus subsp. aureus COL) | 1150 ± 120 µM |

same assay, conditions: other: holo-DapE, Phe-Val, pH 7.5, 37° C.

| Molecule | Km |
| --- | --- |
| S. aureus N-Succinyl-L,L-DAP Desuccinylase (DapE), holo form, SEQ ID NO: 2 (Staphylococcus aureus subsp. aureus COL) | 670 ± 100 µM |

— patent US8639486B2, “Method for identifying inhibitors of Staphylococcus aureus” (Indian Institute of Science, priority 2010, dated 2014)
